Reference: PubChem BioAssay AID2060502 (Molecular Pharmacology Branch, DTP, NCI, 2025)

Test system: 885724-159-R-J1-PDC complex spheroid viability
Test: Anticancer human tumor 885724-159-R-J1-PDC patient-derived pancreatic adenocarcinoma cell line growth inhibition [GQUAD]
Settings: for IC50: curve of first compound; for viability, T/C: stronger effect = lower value
Summary of the method: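 Viability of tumor cells grown as complex spheroids with endothelial and stromal cells, exposed to drug combinations. Top concentration at or near clinical Cmax (else 10 microM), diluted in half-log increments.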

[1] = second compound 0.0316 µM, first compound 0.0316 µM
[2] = second compound 0.0316 µM, first compound 0.1 µM
[3] = second compound 0.0316 µM, first compound 0.316 µM
[4] = second compound 0.0316 µM, first compound 1 µM
[5] = second compound 0.0316 µM, first compound 3.16 µM
[6] = second compound 0.0316 µM, first compound 10 µM
[7] = second compound 0.1 µM, first compound 0.0316 µM
[8] = second compound 0.1 µM, first compound 0.1 µM
[9] = second compound 0.1 µM, first compound 0.316 µM
[10] = second compound 0.1 µM, first compound 1 µM
[11] = second compound 0.1 µM, first compound 3.16 µM
[12] = second compound 0.1 µM, first compound 10 µM
[13] = second compound 0.316 µM, first compound 0.0316 µM
[14] = second compound 0.316 µM, first compound 0.1 µM
[15] = second compound 0.316 µM, first compound 0.316 µM
[16] = second compound 0.316 µM, first compound 1 µM
[17] = second compound 0.316 µM, first compound 3.16 µM
[18] = second compound 0.316 µM, first compound 10 µM
[19] = second compound 1 µM, first compound 0.0316 µM
[20] = second compound 1 µM, first compound 0.1 µM
[21] = second compound 1 µM, first compound 0.316 µM
[22] = second compound 1 µM, first compound 1 µM
[23] = second compound 1 µM, first compound 3.16 µM
[24] = second compound 1 µM, first compound 10 µM
[25] = second compound 3.16 µM, first compound 0.0316 µM
[26] = second compound 3.16 µM, first compound 0.1 µM
[27] = second compound 3.16 µM, first compound 0.316 µM
[28] = second compound 3.16 µM, first compound 1 µM
[29] = second compound 3.16 µM, first compound 3.16 µM
[30] = second compound 3.16 µM, first compound 10 µM
[31] = second compound 10 µM, first compound 0.0316 µM
[32] = second compound 10 µM, first compound 0.1 µM
[33] = second compound 10 µM, first compound 0.316 µM
[34] = second compound 10 µM, first compound 1 µM
[35] = second compound 10 µM, first compound 3.16 µM
[36] = second compound 10 µM, first compound 10 µM
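Further: spheroids exposed to agents for seven days before readout.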
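Wherever viability, T/C is given: percent of vehicle control viability where 100% = DMSO wells.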

Work on `CC1COCCN1c1cc(C2(S(C)(=N)=O)CC2)nc(-c2ccnc3[nH]ccc23)n1` (stereo not drawn) + Cc1[nH]c2ccc(F)cc2c1-c1nc2c3cccnc3c3ncccc3c2[nH]1 yielded an IC50 (second compound 0.0316 µM) of over 10000 nM, an IC50 (second compound 0.1 µM) of over 10000 nM and an IC50 (second compound 0.316 µM) of over 10000 nM. For the same compound, the IC50 (second compound 1 µM) was over 10000 nM, the IC50 (second compound 3.16 µM) was 137 nM and the IC50 (second compound 10 µM) was over 10000 nM. It also gave a viability, T/C [1] of 105%, a viability, T/C [2] of 113% and a viability, T/C [3] of 103%. It also gave a viability, T/C [4] of 90.3%, a viability, T/C [5] of 95.7% and a viability, T/C [6] of 76.2%. It also gave a viability, T/C [7] of 110%, a viability, T/C [8] of 103% and a viability, T/C [9] of 95.7%. The viability, T/C [10] was 103%, the viability, T/C [11] was 77.2% and the viability, T/C [12] was 68.1%. It also gave a viability, T/C [13] of 90.3%, a viability, T/C [14] of 99.9% and a viability, T/C [15] of 93.6%. For the same compound, the viability, T/C [16] was 93.6%, the viability, T/C [17] was 92.4% and the viability, T/C [18] was 67.6%. The viability, T/C [19] was 81.8%, the viability, T/C [20] was 72.5% and the viability, T/C [21] was 78.8%. For the same compound, the viability, T/C [22] was 68.7%, the viability, T/C [23] was 66.6% and the viability, T/C [24] was 64.1%. For the same compound, the viability, T/C [25] was 62.5%, the viability, T/C [26] was 43.8% and the viability, T/C [27] was 56%. It also gave a viability, T/C [28] of 36.3%, a viability, T/C [29] of 48.3% and a viability, T/C [30] of 36%. For the same compound, the viability, T/C [31] was 68.1%, the viability, T/C [32] was 77.2% and the viability, T/C [33] was 67.5%. For the same compound, the viability, T/C [34] was 74.3%, the viability, T/C [35] was 61.1% and the viability, T/C [36] was 54.7%.

Compound `Cc1cccc(N(C)C(=O)C2C(O)CCN2c2nc(C)cc(C(F)(F)F)c2C#N)c1` (stereo not drawn) + Cc1[nH]c2ccc(F)cc2c1-c1nc2c3cccnc3c3ncccc3c2[nH]1 has an IC50 (second compound 0.0316 µM) of over 10000 nM, an IC50 (second compound 0.1 µM) of over 10000 nM and an IC50 (second compound 0.316 µM) of over 10000 nM. The IC50 (second compound 1 µM) was over 10000 nM, the IC50 (second compound 3.16 µM) was under 31.6 nM and the IC50 (second compound 10 µM) was over 10000 nM. For the same compound, the viability, T/C [1] was 105%, the viability, T/C [2] was 93.1% and the viability, T/C [3] was 82.5%. It also gave a viability, T/C [4] of 100%, a viability, T/C [5] of 94.2% and a viability, T/C [6] of 93.1%. The viability, T/C [7] was 91.3%, the viability, T/C [8] was 95.3% and the viability, T/C [9] was 104%. For the same compound, the viability, T/C [10] was 98.6%, the viability, T/C [11] was 81.8% and the viability, T/C [12] was 87.8%. The viability, T/C [13] was 101%, the viability, T/C [14] was 101% and the viability, T/C [15] was 97.4%. The viability, T/C [16] was 79.9%, the viability, T/C [17] was 83.4% and the viability, T/C [18] was 86.7%. For the same compound, the viability, T/C [19] was 71.9%, the viability, T/C [20] was 70.6% and the viability, T/C [21] was 77.1%. For the same compound, the viability, T/C [22] was 66.2%, the viability, T/C [23] was 81% and the viability, T/C [24] was 70.8%. For the same compound, the viability, T/C [25] was 46.6%, the viability, T/C [26] was 41.4% and the viability, T/C [27] was 50.8%. It also gave a viability, T/C [28] of 42.6%, a viability, T/C [29] of 42.1% and a viability, T/C [30] of 43%. The viability, T/C [31] was 66.2%, the viability, T/C [32] was 68.3% and the viability, T/C [33] was 64.8%. For the same compound, the viability, T/C [34] was 69.1%, the viability, T/C [35] was 80.9% and the viability, T/C [36] was 82.7%.

For `COc1cccc2c1C(=O)c1c(O)c3c(c(O)c1C2=O)CC(O)(C(=O)CO)CC3OC1CC(N)C(O)C(C)O1` (stereo not drawn) + Cc1[nH]c2ccc(F)cc2c1-c1nc2c3cccnc3c3ncccc3c2[nH]1, the IC50 (second compound 0.0316 µM) was 1970 nM, the IC50 (second compound 0.1 µM) was 2290 nM and the IC50 (second compound 0.316 µM) was 2490 nM. For the same compound, the IC50 (second compound 1 µM) was 2530 nM, the IC50 (second compound 3.16 µM) was 37.4 nM and the IC50 (second compound 10 µM) was 2000 nM. For the same compound, the viability, T/C [1] was 104%, the viability, T/C [2] was 98.8% and the viability, T/C [3] was 92%. The viability, T/C [4] was 71.8%, the viability, T/C [5] was 34.8% and the viability, T/C [6] was 5.27%. For the same compound, the viability, T/C [7] was 119%, the viability, T/C [8] was 99.5% and the viability, T/C [9] was 89.2%. The viability, T/C [10] was 74.7%, the viability, T/C [11] was 41% and the viability, T/C [12] was 2.4%. For the same compound, the viability, T/C [13] was 91%, the viability, T/C [14] was 96.2% and the viability, T/C [15] was 86.6%. It also gave a viability, T/C [16] of 64%, a viability, T/C [17] of 47.8% and a viability, T/C [18] of 2.12%. The viability, T/C [19] was 78.2%, the viability, T/C [20] was 69.3% and the viability, T/C [21] was 71.5%. The viability, T/C [22] was 61.2%, the viability, T/C [23] was 49% and the viability, T/C [24] was 1.09%. It also gave a viability, T/C [25] of 52.8%, a viability, T/C [26] of 43.5% and a viability, T/C [27] of 29.2%. For the same compound, the viability, T/C [28] was 26.4%, the viability, T/C [29] was 22.5% and the viability, T/C [30] was 0.94%. The viability, T/C [31] was 73.3%, the viability, T/C [32] was 64.9% and the viability, T/C [33] was 58.6%. For the same compound, the viability, T/C [34] was 69.5%, the viability, T/C [35] was 39% and the viability, T/C [36] was 1.06%.

`CC1COCCN1c1cc(C2(O)CC3CCC(C2)O3)c2cnn(-c3ccn[nH]3)c2n1` (stereo not drawn) + CN(C)c1ccc(Nc2c3ccc(NC(=O)CCN4CCCC4)cc3nc3cc(NC(=O)CCN4CCCC4)ccc23)cc1 showed an IC50 (second compound 0.0316 µM) of 1480 nM, an IC50 (second compound 0.1 µM) of 1400 nM and an IC50 (second compound 0.316 µM) of 495 nM. The IC50 (second compound 1 µM) was 880 nM, the IC50 (second compound 3.16 µM) was 286 nM and the IC50 (second compound 10 µM) was 449 nM. It also gave a viability, T/C [1] of 89%, a viability, T/C [2] of 74% and a viability, T/C [3] of 69.3%. It also gave a viability, T/C [4] of 53.1%, a viability, T/C [5] of 41.6% and a viability, T/C [6] of 33.9%. It also gave a viability, T/C [7] of 95.4%, a viability, T/C [8] of 83.8% and a viability, T/C [9] of 61.5%. It also gave a viability, T/C [10] of 55.8%, a viability, T/C [11] of 42.8% and a viability, T/C [12] of 36.8%. For the same compound, the viability, T/C [13] was 80.9%, the viability, T/C [14] was 83.5% and the viability, T/C [15] was 55.4%. It also gave a viability, T/C [16] of 46.4%, a viability, T/C [17] of 44.9% and a viability, T/C [18] of 33%. The viability, T/C [19] was 74.9%, the viability, T/C [20] was 62.5% and the viability, T/C [21] was 65.1%. It also gave a viability, T/C [22] of 45.6%, a viability, T/C [23] of 39.9% and a viability, T/C [24] of 32.6%. The viability, T/C [25] was 80.9%, the viability, T/C [26] was 65.4% and the viability, T/C [27] was 47.6%. For the same compound, the viability, T/C [28] was 38.4%, the viability, T/C [29] was 33.4% and the viability, T/C [30] was 29.5%. It also gave a viability, T/C [31] of 70.2%, a viability, T/C [32] of 66.7% and a viability, T/C [33] of 49.6%. It also gave a viability, T/C [34] of 42.4%, a viability, T/C [35] of 35.6% and a viability, T/C [36] of 23.3%.
